In ChEMBL document CHEMBL1201862, “PubChem BioAssay data set” (2004):
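These data come from cells grown in 96-well plates and exposed to compound for 48 hours at five concentrations. At the GI50, growth is halved.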 Activity calls are given as the source filed them. No stated cut-off is given here; in the data, active = GI50 up to about 1.1 µM and inactive = higher.

What was measured:
Experiment in all cases: inhibition of tumour cell growth, NCI panel, 48 h
A498 = test system: A498
COLO 205 = test system: COLO 205
DLD-1 = test system: DLD-1
EKVX = test system: EKVX
IGROV-1 = test system: IGROV-1
K562 = test system: K562
NCI-H460 = test system: NCI-H460
NCI-H522 = test system: NCI-H522
OVCAR-3 = test system: OVCAR-3
OVCAR-8 = test system: OVCAR-8
RPMI-8226 = test system: RPMI-8226
RXF 393 = test system: RXF 393
SF-268 = test system: SF-268
SF-539 = test system: SF-539
SK-MEL-28 = test system: SK-MEL-28
SK-OV-3 = test system: SK-OV-3
SR = test system: SR
SW-620 = test system: SW-620
BT-549 = test system: BT-549
MDA-MB-231 = test system: MDA-MB-231

Measured: GI50

CC1(Br)S(=O)(=O)OCCOS1(=O)=O
inactive: A498 > 100 µM | COLO 205 > 100 µM | DLD-1 > 100 µM | EKVX > 100 µM | IGROV-1 > 100 µM | K562 > 100 µM | NCI-H460 > 100 µM | NCI-H522 > 100 µM | OVCAR-3 > 100 µM | OVCAR-8 > 100 µM | RPMI-8226 > 100 µM | RXF 393 > 100 µM | SF-268 > 100 µM | SF-539 > 100 µM | SK-MEL-28 > 100 µM | SK-OV-3 > 100 µM | SR > 100 µM | SW-620 > 100 µM

COc1cc(C(C)c2cc3c(cc2OCCOCCOc2cc4c(cc2C(C)c2cc(OC)c(OC)c(OC)c2)OCO4)OCO3)cc(OC)c1OC (centres undefined)
inactive: A498 > 10 µM | COLO 205 > 10 µM | DLD-1 > 10 µM | EKVX > 10 µM | IGROV-1 > 10 µM | K562 36.1 µM | NCI-H460 > 10 µM | NCI-H522 > 10 µM | OVCAR-3 > 10 µM | OVCAR-8 > 10 µM | RPMI-8226 > 100 µM | RXF 393 > 10 µM | SF-268 > 10 µM | SF-539 > 10 µM | SK-MEL-28 > 10 µM | SK-OV-3 > 10 µM | SR > 10 µM | SW-620 > 10 µM

COc1cc(C)c(CC/C(C)=C/Cc2cc(O)ccc2O)c(C)c1C [PANICEIN A HYDROQUINONE]
inactive: A498 > 25 µM | COLO 205 > 25 µM | DLD-1 > 25 µM | EKVX > 25 µM | IGROV-1 > 25 µM | K562 > 25 µM | NCI-H460 > 25 µM | NCI-H522 > 25 µM | OVCAR-3 > 25 µM | OVCAR-8 > 25 µM | RPMI-8226 > 25 µM | RXF 393 > 25 µM | SF-268 > 25 µM | SF-539 > 25 µM | SK-MEL-28 > 25 µM | SK-OV-3 > 25 µM | SR > 25 µM | SW-620 > 25 µM

Nc1ccc(S(=O)(=O)Nc2cnc3ccccc3n2)cc1 [SULFAQUINOXALINE]
inactive: A498 > 100 µM | BT-549 > 100 µM | COLO 205 > 100 µM | DLD-1 > 100 µM | EKVX > 100 µM | IGROV-1 > 96.6 µM | K562 > 100 µM | MDA-MB-231 > 100 µM | NCI-H460 > 100 µM | NCI-H522 > 100 µM | OVCAR-3 > 100 µM | OVCAR-8 > 100 µM | RPMI-8226 > 100 µM | RXF 393 > 100 µM | SF-268 > 87.9 µM | SF-539 > 100 µM | SK-MEL-28 > 100 µM | SK-OV-3 > 100 µM | SR > 100 µM | SW-620 > 100 µM
